According to article PMC11474028, “Lipopeptide antibiotics disrupt interactions of undecaprenyl phosphate with UptA” (Proceedings of the National Academy of Sciences of the …, 2024):

Tested on: UptA R112E/R118E
Assay: Native MS of C55-P binding to UptA double mutant R112E/R118E
Set-up: species or system Bacillus subtilis
Conditions: 5 µM protein, 10 µM C55-P, pH 8.02, 0.05% LDAO, 200 mM ammonium acetate, 100 V; mean of three biological replicates
From the text: Conserved arginine residues in the putative membrane reentrant loops of E. coli DedA proteins YqjA (R130) and YghB (R136) are important for the cellular role of these proteins ([36]). […] How these residues impact substrate interactions, however, is not known. Based on the model structure of UptA predicted by AlphaFold, the R112 residue should engage Q64 while R118 is able to form hydrogen bonds with E32, H119, and W146 to potentially stabilize the membrane reentrant loops (Fig. 3A). To test for the impact of these residues on C55-P binding, we generated the E32A, Q64A, R112A, R118A, H119A, and W146A UptA single mutants. After purification of the proteins, using the same protocol as the wild type (WT) (Materials and Methods and SI Appendix, Fig. S5), we equilibrated aliquots of each protein variant (5 µM) with C55-P (10 µM) and recorded spectra using the same instrument settings. […] We additionally generated a double mutant R112E/R118E in which the polarity of both native arginine residues in the wild type are reversed.
Expression and purification of UptA
Plasmids were used to transform chemically competent E. coli C43(DE3) cells (Lucigen) and selected on LB/Agar containing 100 μg/ml ampicillin at 37 °C. Single colonies were used to inoculate 60 mL LB containing 100 μg/ml ampicillin and were grown at 37 °C overnight for 16 h. […]

CC(C)=CCC/C(C)=C/CC/C(C)=C/CC/C(C)=C\CC/C(C)=C\CC/C(C)=C\CC/C(C)=C\CC/C(C)=C\CC/C(C)=C\CC/C(C)=C\CC/C(C)=C\COP(=O)(O)O [C55-P, undecaprenyl phosphate]
reduction in the intensity of C55-P binding compared to wild type, R112E/R118E: 63%
